From US10793563B2, “GCN2 inhibitors and uses thereof” (Merck Patent GmbH, priority 2018, dated 2020)
pIC50: −log10 of the molar value.

What was measured:
[1] = target: intracellular GCN2 (phosphorylation of the GCN2 substrate eIF2α) (Homo sapiens (Human), UniProt Q9P2K8); experiment: GCN2 Cellular Inhibition Assay (AlphaScreen SureFire P-eIF2α Ser51, borrelidin-treated U2OS cells); assay type: cell-based; conditions: 10 μM borrelidin, 1 h, phosphorylated eIF2α Ser51, read-out: GCN2 Biomarker (IC50)
intracellular GCN2 (phosphorylation of the GCN2 substrate eIF2α), sequence (Q9P2K8 whole entry): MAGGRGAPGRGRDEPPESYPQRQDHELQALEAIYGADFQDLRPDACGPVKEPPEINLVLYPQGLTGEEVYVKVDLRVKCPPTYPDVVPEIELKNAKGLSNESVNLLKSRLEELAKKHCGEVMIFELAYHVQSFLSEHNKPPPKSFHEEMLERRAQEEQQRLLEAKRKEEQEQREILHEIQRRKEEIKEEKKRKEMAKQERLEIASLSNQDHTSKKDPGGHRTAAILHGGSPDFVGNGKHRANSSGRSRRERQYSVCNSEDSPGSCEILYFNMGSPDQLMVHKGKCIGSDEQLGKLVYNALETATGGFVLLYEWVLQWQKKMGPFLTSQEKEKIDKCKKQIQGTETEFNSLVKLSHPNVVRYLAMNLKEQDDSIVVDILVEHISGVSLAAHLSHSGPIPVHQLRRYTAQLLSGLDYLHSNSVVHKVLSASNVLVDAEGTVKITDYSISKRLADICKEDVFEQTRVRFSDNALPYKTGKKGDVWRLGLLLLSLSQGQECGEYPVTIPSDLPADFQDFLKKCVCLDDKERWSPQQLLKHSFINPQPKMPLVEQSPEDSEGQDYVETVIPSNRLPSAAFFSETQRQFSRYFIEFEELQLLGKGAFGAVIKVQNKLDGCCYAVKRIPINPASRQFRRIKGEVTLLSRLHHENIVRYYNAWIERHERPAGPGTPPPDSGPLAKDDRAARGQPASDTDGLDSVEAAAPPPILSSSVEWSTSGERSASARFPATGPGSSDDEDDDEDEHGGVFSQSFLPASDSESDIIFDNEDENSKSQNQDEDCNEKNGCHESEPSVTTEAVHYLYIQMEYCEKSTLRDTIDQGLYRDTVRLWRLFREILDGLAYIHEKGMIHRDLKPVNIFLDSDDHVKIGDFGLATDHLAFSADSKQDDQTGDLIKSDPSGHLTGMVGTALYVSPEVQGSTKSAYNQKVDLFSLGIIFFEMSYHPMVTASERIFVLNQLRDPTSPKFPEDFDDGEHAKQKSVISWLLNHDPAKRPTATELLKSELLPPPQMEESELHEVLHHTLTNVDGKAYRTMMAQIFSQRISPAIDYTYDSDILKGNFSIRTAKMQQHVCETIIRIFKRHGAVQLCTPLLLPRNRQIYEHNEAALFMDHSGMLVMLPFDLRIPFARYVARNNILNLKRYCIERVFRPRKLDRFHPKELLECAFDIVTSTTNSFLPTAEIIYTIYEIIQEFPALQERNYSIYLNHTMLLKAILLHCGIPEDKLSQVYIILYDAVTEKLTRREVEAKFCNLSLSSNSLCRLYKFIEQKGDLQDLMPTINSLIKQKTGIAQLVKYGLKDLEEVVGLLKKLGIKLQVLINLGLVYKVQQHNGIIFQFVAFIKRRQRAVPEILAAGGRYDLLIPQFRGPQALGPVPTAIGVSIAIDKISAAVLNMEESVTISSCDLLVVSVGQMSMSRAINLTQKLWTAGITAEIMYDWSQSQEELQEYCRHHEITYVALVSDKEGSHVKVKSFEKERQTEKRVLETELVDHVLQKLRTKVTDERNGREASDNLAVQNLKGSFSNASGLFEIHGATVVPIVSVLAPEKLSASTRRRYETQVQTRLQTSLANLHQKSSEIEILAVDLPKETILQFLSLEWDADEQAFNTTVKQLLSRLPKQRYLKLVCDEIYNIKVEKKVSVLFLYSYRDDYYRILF
Procedure, shortened: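 U2OS cells adhered overnight, then given compound (top 40 μM, 4-fold serial dilutions) plus 10 μM borrelidin for 1 h at 37 °C. Lysates assayed for eIF2α phospho-Ser51 by AlphaScreen SureFire; % inhibition versus borrelidin-only wells.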

GCN2 kinase = GCN2 kinase (Homo sapiens (Human), UniProt Q9P2K8); experiment: GCN2 Enzyme Inhibition Assay (Transcreener ADP2 fluorescence polarization); assay type: biochemical; conditions: 280 μM ATP, 200 μM (RS)7 peptide, 4 nM GCN2, 25° C.
GCN2 kinase, sequence (Q9P2K8 whole entry): as above
Procedure, shortened: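 Transcreener ADP2 fluorescence polarization detection of ADP from 4 nM GCN2 with (RS)7 substrate in 25 mM Tris-HCl pH 7.5, 50 mM NaCl, 10 mM MgCl2, 1 mM DTT. Compound pre-incubated with enzyme 10 min at 25 °C; reaction started by ATP, run 1 h at 25 °C. IC50 and Ki(app) by tight-binding fit.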

Row | pIC50 [1] | pIC50 (GCN2 kinase) | Structure (SMILES)
1 | 5.30 to 6.30 | 6.00 to 7.00 | C[C@@H]1C[C@H](N=S(C)(C)=O)CN(c2ccnc(-c3cnc4ccc(Oc5ccccc5)cn34)n2)C1 [I-325, dimethyl({[(3 S,5R)-5-methyl-1-(2-{6-phenoxyimidazo[1,2-a]pyridin-3-yl}pyrimidin-4-yl)piperidin-3-yl]imino})-λ6-sulfanone]
2 | > 6.30 | > 8.00 | Fc1cc2ncc(-c3nccc(N4CCCC(c5cn[nH]c5)C4)n3)n2cc1Br (centres unmarked) [I-326, 3-(4-(3-(1H-pyrazol-4-yl)piperidin-1-yl)pyrimidin-2-yl)-6-bromo-7-fluoroimidazo[1,2-a]pyridine]
3 | 5.30 to 6.30 | 7.00 to 8.00 | CC(NS(C)(=O)=O)C1CN(c2ccnc(-c3cnc4ccc(C(F)(F)F)cn34)n2)CCO1 (centres unmarked) [I-327, N-(1-(4-(2-(6-(trifluoromethyl)imidazo[1,2-a]pyridin-3-yl)pyrimidin-4-yl)morpholin-2-yl)ethyl)methanesulfonamide]
4 | > 6.30 | 7.00 to 8.00 | c1ccc(Oc2ccc3ncc(-c4nccc(N5CCCC(c6cn[nH]c6)C5)n4)n3c2)cc1 (centres unmarked) [I-329, 2-{6-phenoxyimidazo[1,2-a]pyridin-3-yl}-4-[3-(1H-pyrazol-4-yl)piperidin-1-yl]pyrimidine]
5 | 5.30 to 6.30 | 7.00 to 8.00 | CC1(C)CN(c2ccnc(-c3cnc4ccc(C(F)(F)F)cn34)n2)CCN1S(C)(=O)=O [I-339, 3-(4-(3,3-dimethyl-4-(methylsulfonyl)piperazin-1-yl)pyrimidin-2-yl)-6-(trifluoromethyl)imidazo[1,2-a]pyridine]
6 | > 6.30 | > 8.00 | C[C@@H]1C[C@H](N=S(C)(C)=O)CN(c2ccnc(-c3cnc4ccc(C(F)F)cn34)n2)C1 [I-340, (((3 S, 5R)-1-(2-(6-(difluoromethyl)imidazo[1,2-a]pyridin-3-yl)pyrimidin-4-yl)-5-methylpiperidin-3-yl)imino)dimethyl-λ6-sulfanone]
7 | > 6.30 | 7.00 to 8.00 | Cc1[nH]ncc1[C@H]1C[C@@H](N=S(C)(C)=O)CN(c2ccnc(-c3cnc4ccc(C(F)(F)F)cn34)n2)C1 [I-342, dimethyl(((3R,5R)-5-(5-methyl-1H-pyrazol-4-yl)-1-(2-(6-(trifluoromethyl)imidazo[1,2-a]pyridin-3-yl)pyrimidin-4-yl)piperidin-3-yl)imino)-λ6-sulfanone]
8 | 5.30 to 6.30 | 6.00 to 7.00 | Cc1oncc1[C@@H]1CN(c2ccnc(-c3cnc4ccc(C(F)(F)F)cn34)n2)C[C@@H](C)O1 [I-343, (2R,6R)-2-methyl-6-(5-methylisoxazol-4-yl)-4-(2-(6-(trifluoromethyl)imidazo[1,2-a]pyridin-3-yl)pyrimidin-4-yl)morpholine]
9 | 5.30 to 6.30 | 6.00 to 7.00 | Cc1[nH]ncc1[C@H]1C[C@H](N=S(C)(C)=O)CN(c2ccnc(-c3cnc4ccc(C(F)(F)F)cn34)n2)C1 [I-344, dimethyl(((3 S,5R)-5-(5-methyl-1H-pyrazol-4-yl)-1-(2-(6-(trifluoromethyl)imidazo[1,2-a]pyridin-3-yl)pyrimidin-4-yl)piperidin-3-yl)imino)-λ6-sulfanone]
10 | 5.30 to 6.30 | 6.00 to 7.00 | Cc1oncc1[C@H]1CN(c2ccnc(-c3cnc4ccc(C(F)(F)F)cn34)n2)C[C@H](C)O1 [I-345, (2S,6S)-2-methyl-6-(5-methylisoxazol-4-yl)-4-(2-(6-(trifluoromethyl)imidazo[1,2-a]pyridin-3-yl)pyrimidin-4-yl)morpholine]
11 | > 6.30 | 7.00 to 8.00 | Cc1oncc1[C@@H]1CN(c2ccnc(-c3cnc4ccc(C(F)(F)F)cn34)n2)C[C@H](C)O1 [I-346, (2S,6R)-2-methyl-6-(5-methylisoxazol-4-yl)-4-(2-(6-(trifluoromethyl)imidazo[1,2-a]pyridin-3-yl)pyrimidin-4-yl)morpholine]
12 | 5.30 to 6.30 | 6.00 to 7.00 | Cc1oncc1[C@H]1CN(c2ccnc(-c3cnc4ccc(C(F)(F)F)cn34)n2)C[C@@H](C)O1 [I-347, (2R,6S)-2-methyl-6-(5-methylisoxazol-4-yl)-4-(2-(6-(trifluoromethyl)imidazo[1,2-a]pyridin-3-yl)pyrimidin-4-yl)morpholine]
13 | > 6.30 | 7.00 to 8.00 | CCOC1(N2CCN(c3ccnc(-c4cnc5ccc(C(F)(F)F)cn45)n3)C(C)C2c2cn[nH]c2)CC1 (centres unmarked) [I-348, 3-(4-(4-(1-ethoxycyclopropyl)-2-methyl-3-(1H-pyrazol-4-yl)piperazin-1-yl)pyrimidin-2-yl)-6-(trifluoromethyl)imidazo[1,2-a]pyridine]
14 | 5.30 to 6.30 | 7.00 to 8.00 | NC(=O)[C@H]1CN(c2ccnc(-c3cnc4ccc(Cl)cn34)n2)CCN1C1CC1 [I-349, (R)-4-(2-(6-chloroimidazo[1,2-a]pyridin-3-yl)pyrimidin-4-yl)-1-cyclopropylpiperazine-2-carboxamide]
15 | > 6.30 | > 8.00 | FC(F)(F)c1ccc2ncc(-c3nccc(N4CCNC(c5cn[nH]c5)C4)n3)n2c1 (centres unmarked) [I-351, 3-(4-(3-(1H-pyrazol-4-yl)piperazin-1-yl)pyrimidin-2-yl)-6-(trifluoromethyl)imidazo[1,2-a]pyridine]
16 | 5.30 to 6.30 | > 8.00 | OCC(O)CN1CCN(c2ccnc(-c3cnc4ccc(C(F)(F)F)cn34)n2)CC1c1cn[nH]c1 (centres unmarked) [I-352, 3-(2-(1H-pyrazol-4-yl)-4-(2-(6-(trifluoromethyl)imidazo[1,2-a]pyridin-3-yl)pyrimidin-4-yl)piperazin-1-yl)propane-1,2-diol]
17 | > 6.30 | > 8.00 | FC(F)(F)c1ccc2ncc(-c3nccc(N4CCN(Cc5cocn5)C(c5cn[nH]c5)C4)n3)n2c1 (centres unmarked) [I-353, 4-((2-(1H-pyrazol-4-yl)-4-(2-(6-(trifluoromethyl)imidazo[1,2-a]pyridin-3-yl)pyrimidin-4-yl)piperazin-1-yl)methyl)oxazole]
18 | 5.30 to 6.30 | 6.00 to 7.00 | FC(F)(F)c1ccc2ncc(-c3nccc(N4CCCC(n5ccc(C(F)(F)F)n5)C4)n3)n2c1 (centres unmarked) [I-355, 6-(trifluoromethyl)-3-(4-(3-(3-(trifluoromethyl)-1H-pyrazol-1-yl)piperidin-1-yl)pyrimidin-2-yl)imidazo[1,2-a]pyridine]
19 | 5.30 to 6.30 | 7.00 to 8.00 | FC(F)(F)c1ccc2ncc(-c3nccc(N4CCCC(n5cncn5)C4)n3)n2c1 (centres unmarked) [I-356, 3-(4-(3-(1H-1,2,4-triazol-1-yl)piperidin-1-yl)pyrimidin-2-yl)-6-(trifluoromethyl)imidazo[1,2-a]pyridine]
20 | > 6.30 | 7.00 to 8.00 | Cc1n[nH]cc1C1CC(F)CN(c2ccnc(-c3cnc4ccc(C(F)(F)F)cn34)n2)C1 (centres unmarked) [I-357, 3-(4-(3-fluoro-5-(3-methyl-1H-pyrazol-4-yl)piperidin-1-yl)pyrimidin-2-yl)-6-(trifluoromethyl)imidazo[1,2-a]pyridine]
21 | > 6.30 | > 8.00 | Cc1n[nH]cc1C1CN(c2ccnc(-c3cnc4ccc(C(F)(F)F)cn34)n2)CC(C)O1 (centres unmarked) [I-358, 2-methyl-6-(3-methyl-1H-pyrazol-4-yl)-4-(2-(6-(trifluoromethyl)imidazo[1,2-a]pyridin-3-yl)pyrimidin-4-yl)morpholine]
22 | > 6.30 | > 8.00 | Cc1n[nH]cc1[C@@H]1CN(c2ccnc(-c3cnc4cc(Cl)c(C(F)(F)F)cn34)n2)C[C@@H](C)O1 [I-360, (2R,6R)-4-(2-(7-chloro-6-(trifluoromethyl)imidazo[1,2-a]pyridin-3-yl)pyrimidin-4-yl)-2-methyl-6-(3-methyl-1H-pyrazol-4-yl)morpholine]
